Reference: PMC11845477, “Exploring the principles behind antibiotics with limited resistance” (Nature Communications, 2025)
Where two headings read alike, the source gives them in different places. Where a SMILES comes first, the peptide text is derived from it. Bridges are numbered along the chain shown (N, C = ends). [ ]: non-standard residue; d: D form. The star is where a group is joined. X2 = CC[C@H](C)CCCCC(=O)*; Dab = NCC[C@H](N)C(=O)O

What was measured:
[1] = tested on: P. aeruginosa ATCC BAA-3107 (SEN) and P. aeruginosa LESB58 (MDR); experiment: microbe, parasite or virus in culture; format: cell-based, Pseudomonas aeruginosa; conditions: for MIC: across three biological replicates
Description: This study focused on multiple bacterial strains, as follows. For the FoR and ALE experiments, 2 strains per species were chosen: E. coli ATCC 25922, K. pneumoniae ATCC 10031, A. baumannii ATCC 17978, and P. aeruginosa ATCC BAA-3107 as sensitive (SEN) strains, and E. coli NCTC13846, K. pneumoniae ATCC 700603, A. baumannii ATCC BAA-1605 and P. aeruginosa LESB58 as multi-drug resistant (MDR) strains. Functional metagenomic screens were performed with E. coli ATCC 25922 and K. pneumoniae ATCC 10031 strains. To determine the dose-kill properties of the different antibiotics, an E. coli strain (ATCC 25922) expressing a yellow fluorescent protein (pZS2R, YFP, CHL^R) and a red fluorescent protein (pZS2R, mCherry, CHL^R) was used.
Unless otherwise indicated, cation-adjusted Mueller-Hinton Broth 2 (MHB, Millipore) medium was used throughout the study, except for SCH79797 (SCH).
(§1) A robotic liquid handling system was used to automatically prepare a 11 to 16-step serial dilution in 384-well microtiter plates (Greiner). A final concentration of 5 × 10^5 bacterial cells per mL were inoculated into each well containing 60 µL MHB medium. Bacterial cultures were incubated at 37 °C with continuous shaking (Infors shaker, 900 rpm with 3 mm throw) for 18 hours (2 replicates from each). Cell growth was monitored by measuring the optical density (OD600 values, using Biotek Synergy microplate reader). MIC was defined as the antibiotic concentration of complete growth inhibition (i.e., OD600 < 0.05). Relative MIC was calculated as follows:1 relativeMIC=MICevolved/MICancestor

[2] = tested on: E. coli ATCC 25922 (SEN) and E. coli NCTC13846 (MDR); experiment: Frequency-of-resistance (FoR) assay, relative MIC of mutants; format: cell-based, Escherichia coli; conditions: for MIC: Escherichia coli
Description: The susceptibility of antibiotics to resistance development was evaluated in two strains of each bacterial species: a multidrug-resistant strain and an antibiotic-sensitive strain of Escherichia coli, Klebsiella pneumoniae, Acinetobacter baumannii, and Pseudomonas aeruginosa. To explore first-step resistance, we previously used a standard protocol for spontaneous frequency-of-resistance analysis (FoR assay) at multiple concentrations of each antibiotic[10],[28],[31]–[33]. […] For all other combinations, approximately 10^10 bacterial cells were exposed to one of each antibiotic on agar plates for two days at concentrations where the given strain is susceptible. We examined resistance levels by contrasting the minimum inhibitory concentration (MICs) of the mutated strains to the original wild-type bacterial strain (i.e., relative MIC).
To estimate the frequency of spontaneous mutations that confer resistance in a microbial population, we conducted a frequency of resistance (FoR) assay following established protocols[10],[31]–[33]. […] Prior to plating, bacteria were grown overnight in MHB medium at 37 °C and 250 RPM, then centrifuged and washed in MHB. All experiments were performed in triplicate, and plates were incubated at 37 °C for 48 hours. Total colony-forming units (CFUs) were determined by plating appropriate dilutions onto antibiotic-free MHB agar. Resistance frequencies were calculated by dividing the number of resistant colonies by the initial viable cell count. From the plates with the highest antibiotic concentration, ten colonies were selected for MIC determination and whole-genome sequencing.
as §1, with “relativeMIC=MICevolved/MICancestor […]” for “relativeMIC=MICevolved/MICancestor”
Supplementary Figure 3. Resistance levels following the frequency of resistance assay across bacterial strains. The level of resistance was measured as the fold change in relative MIC between evolved and ancestral strains. Data are grouped by bacterial strain (A. baumannii (AB), E. coli (EC), K. pneumoniae (KP), and P. aeruginosa (PA)) and categorized as either multidrug-resistant (MDR) or sensitive (SEN). Each data point represents a laboratory evolved line, and boxplots show the median, first and third quartiles, with whiskers indicating the 5th and 95th percentiles. […]
analysis was performed using two-sided Dunn’s post-hoc test with Benjamini-Hochberg correction for multiple comparisons (**/ * indicates p < 0.01/ 0.05). For detailed information on antibiotic and bacterial species, see Supplementary Table 1. For mode of action groups, refer to Table 1. Source data are provided as a Source Data file.

[3] = Pseudomonas aeruginosa, ATCCBAA3107, Pseudomonas aeruginosa ATCC BAA-3107 (PA-SEN)
[4] = Pseudomonas aeruginosa, ATCCBAA3107, Pseudomonas aeruginosa LESB 58 (PA-MDR)
[5] = Escherichia coli ATCC 25922 (EC-SEN), evolved line 1 versus ancestor
[6] = Escherichia coli ATCC 25922 (EC-SEN), evolved line 2 versus ancestor
[7] = Escherichia coli ATCC 25922 (EC-SEN), evolved line 3 versus ancestor
[8] = P. aeruginosa LESB 58 (PA-MDR), ancestor strain, sheet fig 2a
[9] = Pseudomonas aeruginosa ATCC BAA 3107 (PA-SEN), ancestor strain
[10] = read-out: MIC of evolved line, Escherichia coli ATCC 25922 (EC-SEN), evolved line 1
[11] = read-out: MIC of evolved line, Escherichia coli ATCC 25922 (EC-SEN), evolved line 2
[12] = read-out: MIC of evolved line, Escherichia coli ATCC 25922 (EC-SEN), evolved line 3
[13] = P. aeruginosa ATCC BAA 3107 (PA-SEN), ancestor strain, sheet fig 2a
[14] = E. coli NCTC 13846 (EC-MDR), evolved line 1, evolved vs ancestor
[15] = E. coli NCTC 13846 (EC-MDR), evolved line 2, evolved vs ancestor
[16] = E. coli NCTC 13846 (EC-MDR), evolved line 3, evolved vs ancestor
[17] = read-out: MIC of evolved line, E. coli NCTC 13846 (EC-MDR), evolved line 1
[18] = read-out: MIC of evolved line, E. coli NCTC 13846 (EC-MDR), evolved line 3
[19] = PA-SEN, Pseudomonas aeruginosa ATCC BAA 3107, ancestor strain
[20] = read-out: MIC of evolved line, E. coli NCTC 13846 (EC-MDR), evolved line 2
[21] = PA-MDR, Pseudomonas aeruginosa LESB 58, ancestor strain
[22] = Pseudomonas aeruginosa ATCC BAA-3107 (PA-SEN)
[23] = Pseudomonas aeruginosa LESB 58 (PA-MDR)

Row | Molecule | MIC [1, 3] | MIC [1, 4] | Relative MIC [2, 5] | Relative MIC [2, 6] | Relative MIC [2, 7] | MIC [2, 10] | MIC [2, 11] | MIC [2, 12] | MIC of ancestor [1, 13] | MIC of ancestor [1, 19] | other results
1 | CN[C@@H]1[C@@H](O[C@H]2O[C@H](CO)[C@@H](N)[C@H](O)[C@H]2O)OC2C[C@@H](N)[C@@H](O[C@H]3[C@H](O)[C@@H](O)[C@H](N)C[C@@H]3N)OC2[C@@H]1O (stereo partly shown) [Apramycin] | 8 µg/mL | > 32 µg/mL | – | – | – | – | – | – | – | – | –
2 | Nc1nc(-n2cc(C(=O)O)c(=O)c3cc(F)c(N4CC(O)C4)c(Cl)c32)c(F)cc1F [Delafloxacin] | < 0.0312 µg/mL | 2 µg/mL | 1 | 1 | 1 | – | – | – | – | – | MIC of ancestor [1, 8]: 2 µg/mL; MIC of ancestor [1, 9]: 0.0156 µg/mL; MIC of ancestor ([1]; Pseudomonas aeruginosa LESB 58 (PA-MDR), ancestor strain): 2 µg/mL
3 | C[C@H]1c2cccc(O)c2C(=O)C2=C(O)[C@]3(O)C(=O)C(C(N)=O)=C(O)[C@@H](N(C)C)[C@@H]3[C@@H](O)[C@@H]21 [Doxycycline] | 4 µg/mL | 32 µg/mL | 2 | 4 | 2 | 2 µg/mL | 4 µg/mL | 2 µg/mL | 4 µg/mL | – | MIC of ancestor [1, 9]: 4 µg/mL
4 | CN(C)[C@@H]1C(O)=C(C(N)=O)C(=O)[C@@]2(O)C(O)=C3C(=O)c4c(O)c(NC(=O)CN5CCCC5)cc(F)c4C[C@H]3C[C@@H]12 [Eravacycline] | 4 µg/mL | 32 µg/mL | 2 | 1 | 2 | 0.25 µg/mL | 0.125 µg/mL | 0.25 µg/mL | 4 µg/mL | 4 µg/mL | Relative MIC [2, 14]: 2; Relative MIC [2, 15]: 1; Relative MIC [2, 16]: 2; MIC [2, 17]: 2 µg/mL; MIC [2, 18]: 2 µg/mL
5 | CNC(C)C1CCC(N)C(OC2C(N)CC(N)C(OC3OCC(C)(O)C(NC)C3O)C2O)O1 (stereo not shown) [Gentamicin] | 1 µg/mL | > 32 µg/mL | 16 | 16 | 8 | 16 µg/mL | 16 µg/mL | 8 µg/mL | 1 µg/mL | 1 µg/mL | Relative MIC [2, 14]: 8; Relative MIC [2, 15]: 4; Relative MIC [2, 16]: 4; MIC [2, 17]: 8 µg/mL; MIC [2, 20]: 4 µg/mL; MIC [2, 18]: 4 µg/mL
6 | O=c1ccc2ncc(=O)n3c2n1C[C@H]3CN1CCC(NCc2cc3c(cn2)OCCC3)CC1 [Gepotidacin] | 4 µg/mL | 4 µg/mL | 1 | 1 | 1 | – | – | – | 4 µg/mL | 4 µg/mL | Relative MIC [2, 14]: 1; Relative MIC [2, 15]: 1; Relative MIC [2, 16]: 1; MIC of ancestor [1, 8]: 4 µg/mL; MIC of ancestor [1, 21]: 4 µg/mL
7 | C[C@@H](O)[C@H]1C(=O)N2C(C(=O)O)=C(S[C@@H]3CN[C@H](C(=O)N(C)C)C3)[C@H](C)[C@H]12 [Meropenem] | 0.0312 µg/mL | 2 µg/mL | – | – | – | 0.0156 µg/mL | 0.0156 µg/mL | 0.0156 µg/mL | 0.0312 µg/mL | 0.0312 µg/mL | MIC [2, 20]: 0.0156 µg/mL; MIC of ancestor [1, 8]: 2 µg/mL; MIC of ancestor [1, 21]: 2 µg/mL
8 | COc1c(N2C[C@@H]3CCCN[C@@H]3C2)c(F)cc2c(=O)c(C(=O)O)cn(C3CC3)c12 [Moxifloxacin] | 1 µg/mL | 32 µg/mL | – | – | – | – | – | – | 1 µg/mL | – | MIC of ancestor ([1]; Pseudomonas aeruginosa ATCC BAA 3107 (PA-SEN), ancestor): 1 µg/mL
9 | CN(C)c1cc(CNCC(C)(C)C)c(O)c2c1C[C@H]1C[C@H]3[C@H](N(C)C)C(O)=C(C(N)=O)C(=O)[C@@]3(O)C(O)=C1C2=O [Omadacycline] | > 32 µg/mL | > 32 µg/mL | 2 | 2 | 2 | 4 µg/mL | 4 µg/mL | 4 µg/mL | – | – | –
10 | CC[C@H](C)CCCCC(=O)N[C@@H](CCN)C(=O)N[C@H](C(=O)N[C@@H](CCN)C(=O)N[C@H]1CCNC(=O)[C@H]([C@@H](C)O)NC(=O)[C@H](CCN)NC(=O)[C@H](CCN)NC(=O)[C@H](CC(C)C)NC(=O)[C@@H](Cc2ccccc2)NC(=O)[C@H](CCN)NC1=O)[C@@H](C)O [Polymyxin B] (X2-[Dab]T[Dab][Dab][Dab][dF]L[Dab][Dab]T; lactam 4-C (inferred); N-terminus assumed) | – | – | – | – | – | – | – | – | – | – | MIC [1, 22]: 1 µg/mL; MIC [1, 23]: 2 µg/mL
11 | CC(C)c1ccc(Cn2ccc3c4c(N)nc(NC5CC5)nc4ccc32)cc1 [SCH79797] | – | – | – | – | – | – | – | – | – | – | MIC of evolved line ([2]; E. coli ATCC 25922 (EC-SEN), evolved line 1): 8 µg/mL; Relative MIC ([2]; E. coli ATCC 25922 (EC-SEN), evolved line 1, evolved vs ancestor): 2; MIC of evolved line ([2]; E. coli ATCC 25922 (EC-SEN), evolved line 2): 8 µg/mL; Relative MIC ([2]; E. coli ATCC 25922 (EC-SEN), evolved line 2, evolved vs ancestor): 2; MIC of evolved line ([2]; E. coli ATCC 25922 (EC-SEN), evolved line 3): 8 µg/mL; Relative MIC ([2]; E. coli ATCC 25922 (EC-SEN), evolved line 3, evolved vs ancestor): 2; Relative MIC ([2]; FoR assay, Escherichia coli ATCC 25922 (EC-SEN), evolved line 1): 2; Relative MIC ([2]; FoR assay, Escherichia coli ATCC 25922 (EC-SEN), evolved line 2): 2; Relative MIC ([2]; FoR assay, Escherichia coli ATCC 25922 (EC-SEN), evolved line 3): 2; MIC [1, 22]: 32 µg/mL; MIC [1, 23]: >32 µg/mL
12 | POL7306 | – | – | – | – | – | – | – | – | – | – | MIC [1, 22]: 2 µg/mL; MIC [1, 23]: 8 µg/mL
